# Reference: US20050113413A1, “Naphthalene-1,5-disulfonic acid salts of a substituted 4-amino-1-(pyridylmethyl)piperidine compound” (priority 2003, published 2005)
# System: rat bladder (volume-induced bladder contractions)
# Test: In vivo rat bladder assay (volume-induced bladder contraction amplitude)
# Set-up: species or system Sprague-Dawley rats
# Conditions: anesthetized female rats, intravenous, normalized to atropine response
# Procedure: Female Sprague-Dawley rats (Harlan, Indianapolis, Ind.) weighing 200 to 300 g were anesthetized with urethane (1.5 g/kg, s.c., Sigma, St. Louis, Mo.), with a supplement of 0.25 g/kg, s.c. urethane as needed. Urethane was administered at a concentration of 0.25 g/mL.
# Rats were prepared for surgery by shaving the neck and abdomen and cleansing with ethanol wipes. First, an incision was made on the ventral surface. An intravenous catheter was placed by isolating and ligating the femoral vein. […]
# Thereafter, an intravenous dose of the test compound was administered and changes in VIBCAmp were recorded for 15 minutes. Atropine (0.1 mg/kg) was then administered intravenously (1 mL/kg) as a positive control and VIBCAmp and data was recorded for an additional 15 minutes. […]
# Alternatively, after the vehicle, increasing cumulative intravenous doses of the test compound were administered at 15 minute intervals (1 mL/kg) and changes in VIBCAmp were recorded for 15 minutes. […]
# The average VIBCAmp during the 5-15 minute period after test compound and atropine was determined and subtracted from the average VIBCAmp during the 5-15 minute post-vehicle period to obtain the test compound or atropine-induced change in VIBCAmp. […]
smiles,measurement,value
COc1ccncc1CN1CCC(N(CCCCCCCN2CC[C@@H](C(C(N)=O)(c3ccccc3)c3ccccc3)C2)C(C)C)CC1 [Example 6],"ID50 (dose required to produce 50% of the maximal response), VIBCAmp",less than or equal to 0.1 mg/kg
